Data as given in the supplement of paper PMC10307832.

Experiments:
Experiment in all cases: relative viability (nuclei count vs DMSO), 5 days (fraction); higher = more cells survive
Bicalutamide + Olaparib = compound: CC(O)(CS(=O)(=O)c1ccc(F)cc1)C(=O)Nc1ccc(C#N)c(C(F)(F)F)c1 [Bicalutamide] + O=C(c1cc(Cc2n[nH]c(=O)c3ccccc23)ccc1F)N1CCN(C(=O)C2CC2)CC1 [Olaparib] (partner 8 µM)
Procedure, shortened: (§1)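 Lung cancer cell lines in 1536-well plates got either a single drug or a fixed anchor-drug dose together with five library-drug doses (not always all listed) in √10 steps, by pin tool, on the day after seeding. Nuclei were counted after 5 days, and relative viability is the treated-to-vehicle ratio of nuclei counts. Values are medians of duplicate plates.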

[1] = compound: CC(O)(CS(=O)(=O)c1ccc(F)cc1)C(=O)Nc1ccc(C#N)c(C(F)(F)F)c1 [Bicalutamide] + Nc1nc2[nH]cc(CCc3ccc(C(=O)N[C@@H](CCC(=O)O)C(=O)O)cc3)c2c(=O)[nH]1 [Pemetrexed] (partner 0.2 µM)
Procedure, shortened: as §1

[2] = compound: CC(O)(CS(=O)(=O)c1ccc(F)cc1)C(=O)Nc1ccc(C#N)c(C(F)(F)F)c1 [Bicalutamide] + C[C@@H](Oc1cc(-c2cnn(C3CCNCC3)c2)cnc1N)c1c(Cl)ccc(F)c1Cl [Crizotinib] (partner 1 µM)
Procedure, shortened: as §1

[3] = compound: C(C(=O)C(=O)O)Br [Bromopyruvate] + C[C@]1(O)C[C@@H](c2nc(-c3ccc4ccc(-c5ccccc5)nc4c3)c3c(N)nccn32)C1 [Linsitinib] (partner 1 µM)
Procedure, shortened: as §1

## HCC-366
Bicalutamide + Olaparib; first compound 0.08 µM
  relative viability: 0.361
Bicalutamide + Olaparib; first compound 0.253 µM
  relative viability: 0.323
Bicalutamide + Olaparib; first compound 0.8 µM
  relative viability: 0.444
Bicalutamide + Olaparib; first compound 2.53 µM
  relative viability: 0.286
[1]; first compound 0.08 µM
  relative viability: 0.16
[1]; first compound 0.253 µM
  relative viability: 0.189
[1]; first compound 0.8 µM
  relative viability: 0.191
[1]; first compound 2.53 µM
  relative viability: 0.163
[2]; first compound 0.08 µM
  relative viability: 0.599
[2]; first compound 0.253 µM
  relative viability: 0.473
[2]; first compound 0.8 µM
  relative viability: 0.698
[2]; first compound 2.53 µM
  relative viability: 0.328
[3]; first compound 1 µM
  relative viability: 0.615
[3]; first compound 3.162 µM
  relative viability: 0.848
[3]; first compound 10 µM
  relative viability: 0.765
[3]; first compound 31.62 µM
  relative viability: 0.769
[3]; first compound 100 µM
  relative viability: 0.54

## BEN
Bicalutamide + Olaparib; first compound 0.08 µM
  relative viability: 1.1
Bicalutamide + Olaparib; first compound 0.253 µM
  relative viability: 1.15
Bicalutamide + Olaparib; first compound 0.8 µM
  relative viability: 1.26
Bicalutamide + Olaparib; first compound 2.53 µM
  relative viability: 1.06
[1]; first compound 0.08 µM
  relative viability: 0.854
[1]; first compound 0.253 µM
  relative viability: 0.74
[1]; first compound 0.8 µM
  relative viability: 1.15
[1]; first compound 2.53 µM
  relative viability: 0.837
[2]; first compound 0.08 µM
  relative viability: 0.773
[2]; first compound 0.253 µM
  relative viability: 0.778
[2]; first compound 0.8 µM
  relative viability: 1.14
[2]; first compound 2.53 µM
  relative viability: 0.866
[3]; first compound 1 µM
  relative viability: 0.97
[3]; first compound 3.162 µM
  relative viability: 0.869
[3]; first compound 10 µM
  relative viability: 0.932
[3]; first compound 31.62 µM
  relative viability: 0.929
[3]; first compound 100 µM
  relative viability: 0.936

## NCI-H2347
Bicalutamide + Olaparib; first compound 0.08 µM
  relative viability: 0.518
Bicalutamide + Olaparib; first compound 0.253 µM
  relative viability: 0.555
Bicalutamide + Olaparib; first compound 0.8 µM
  relative viability: 0.62
Bicalutamide + Olaparib; first compound 2.53 µM
  relative viability: 0.54
[1]; first compound 0.08 µM
  relative viability: 0.463
[1]; first compound 0.253 µM
  relative viability: 0.444
[1]; first compound 0.8 µM
  relative viability: 0.453
[1]; first compound 2.53 µM
  relative viability: 0.445
[2]; first compound 0.08 µM
  relative viability: 0.797
[2]; first compound 0.253 µM
  relative viability: 0.621
[2]; first compound 0.8 µM
  relative viability: 0.689
[2]; first compound 2.53 µM
  relative viability: 0.675
[3]; first compound 1 µM
  relative viability: 0.995
[3]; first compound 3.162 µM
  relative viability: 0.989
[3]; first compound 10 µM
  relative viability: 1.21
[3]; first compound 31.62 µM
  relative viability: 0.756
[3]; first compound 100 µM
  relative viability: 1.08

## 201T
Bicalutamide + Olaparib; first compound 0.08 µM
  relative viability: 0.881
Bicalutamide + Olaparib; first compound 0.253 µM
  relative viability: 0.885
Bicalutamide + Olaparib; first compound 0.8 µM
  relative viability: 0.846
Bicalutamide + Olaparib; first compound 2.53 µM
  relative viability: 0.877
[1]; first compound 0.08 µM
  relative viability: 0.306
[1]; first compound 0.253 µM
  relative viability: 0.33
[1]; first compound 0.8 µM
  relative viability: 0.328
[1]; first compound 2.53 µM
  relative viability: 0.36
[2]; first compound 0.08 µM
  relative viability: 1.04
[2]; first compound 0.253 µM
  relative viability: 0.942
[2]; first compound 0.8 µM
  relative viability: 1.01
[2]; first compound 2.53 µM
  relative viability: 1.06
[3]; first compound 1 µM
  relative viability: 1.05
[3]; first compound 3.162 µM
  relative viability: 1.07
[3]; first compound 10 µM
  relative viability: 1.06
[3]; first compound 31.62 µM
  relative viability: 1.02
[3]; first compound 100 µM
  relative viability: 1.11

## NCI-H520
Bicalutamide + Olaparib; first compound 0.08 µM
  relative viability: 0.342
Bicalutamide + Olaparib; first compound 0.253 µM
  relative viability: 0.31
Bicalutamide + Olaparib; first compound 0.8 µM
  relative viability: 0.335
Bicalutamide + Olaparib; first compound 2.53 µM
  relative viability: 0.337
[1]; first compound 0.08 µM
  relative viability: 0.846
[1]; first compound 0.253 µM
  relative viability: 0.635
[1]; first compound 0.8 µM
  relative viability: 0.81
[1]; first compound 2.53 µM
  relative viability: 0.635
[2]; first compound 0.08 µM
  relative viability: 0.836
[2]; first compound 0.253 µM
  relative viability: 0.681
[2]; first compound 0.8 µM
  relative viability: 0.93
[2]; first compound 2.53 µM
  relative viability: 0.577
[3]; first compound 1 µM
  relative viability: 1.06
[3]; first compound 3.162 µM
  relative viability: 1.09
[3]; first compound 10 µM
  relative viability: 1.11
[3]; first compound 31.62 µM
  relative viability: 0.961
[3]; first compound 100 µM
  relative viability: 0.893

## HCC-15
Bicalutamide + Olaparib; first compound 0.08 µM
  relative viability: 0.77
Bicalutamide + Olaparib; first compound 0.253 µM
  relative viability: 0.685
Bicalutamide + Olaparib; first compound 0.8 µM
  relative viability: 0.769
Bicalutamide + Olaparib; first compound 2.53 µM
  relative viability: 0.657
[1]; first compound 0.08 µM
  relative viability: 0.23
[1]; first compound 0.253 µM
  relative viability: 0.231
[1]; first compound 0.8 µM
  relative viability: 0.221
[1]; first compound 2.53 µM
  relative viability: 0.223
[2]; first compound 0.08 µM
  relative viability: 0.82
[2]; first compound 0.253 µM
  relative viability: 0.767
[2]; first compound 0.8 µM
  relative viability: 1.01
[2]; first compound 2.53 µM
  relative viability: 0.882
[3]; first compound 1 µM
  relative viability: 0.84
[3]; first compound 3.162 µM
  relative viability: 0.867
[3]; first compound 10 µM
  relative viability: 0.924
[3]; first compound 31.62 µM
  relative viability: 0.824
[3]; first compound 100 µM
  relative viability: 0.899

## LCLC-103H
Bicalutamide + Olaparib; first compound 0.08 µM
  relative viability: 0.775
Bicalutamide + Olaparib; first compound 0.253 µM
  relative viability: 0.785
Bicalutamide + Olaparib; first compound 0.8 µM
  relative viability: 0.835
Bicalutamide + Olaparib; first compound 2.53 µM
  relative viability: 0.75
[1]; first compound 0.08 µM
  relative viability: 0.446
[1]; first compound 0.253 µM
  relative viability: 0.408
[1]; first compound 0.8 µM
  relative viability: 0.469
[1]; first compound 2.53 µM
  relative viability: 0.462
[2]; first compound 0.08 µM
  relative viability: 1.06
[2]; first compound 0.253 µM
  relative viability: 1.04
[2]; first compound 0.8 µM
  relative viability: 1
[2]; first compound 2.53 µM
  relative viability: 1.02
[3]; first compound 1 µM
  relative viability: 1.28
[3]; first compound 3.162 µM
  relative viability: 1.07
[3]; first compound 10 µM
  relative viability: 1
[3]; first compound 31.62 µM
  relative viability: 1.08
[3]; first compound 100 µM
  relative viability: 1.14

## NCI-H460
Bicalutamide + Olaparib; first compound 0.08 µM
  relative viability: 0.439
Bicalutamide + Olaparib; first compound 0.253 µM
  relative viability: 0.391
Bicalutamide + Olaparib; first compound 0.8 µM
  relative viability: 0.436
Bicalutamide + Olaparib; first compound 2.53 µM
  relative viability: 0.383
[1]; first compound 0.08 µM
  relative viability: 0.0574
[1]; first compound 0.253 µM
  relative viability: 0.0589
[1]; first compound 0.8 µM
  relative viability: 0.0592
[1]; first compound 2.53 µM
  relative viability: 0.0687
[2]; first compound 0.08 µM
  relative viability: 0.896
[2]; first compound 0.253 µM
  relative viability: 0.798
[2]; first compound 0.8 µM
  relative viability: 1.28
[2]; first compound 2.53 µM
  relative viability: 0.825
[3]; first compound 1 µM
  relative viability: 0.801
[3]; first compound 3.162 µM
  relative viability: 0.832
[3]; first compound 10 µM
  relative viability: 1.09
[3]; first compound 31.62 µM
  relative viability: 0.717
[3]; first compound 100 µM
  relative viability: 0.744

## EPLC-272H
Bicalutamide + Olaparib; first compound 0.08 µM
  relative viability: 0.791
Bicalutamide + Olaparib; first compound 0.253 µM
  relative viability: 0.699
Bicalutamide + Olaparib; first compound 0.8 µM
  relative viability: 0.695
Bicalutamide + Olaparib; first compound 2.53 µM
  relative viability: 0.682
[1]; first compound 0.08 µM
  relative viability: 0.424
[1]; first compound 0.253 µM
  relative viability: 0.322
[1]; first compound 0.8 µM
  relative viability: 0.359
[1]; first compound 2.53 µM
  relative viability: 0.207
[2]; first compound 0.08 µM
  relative viability: 0.947
[2]; first compound 0.253 µM
  relative viability: 0.898
[2]; first compound 0.8 µM
  relative viability: 1.01
[2]; first compound 2.53 µM
  relative viability: 0.833
[3]; first compound 1 µM
  relative viability: 1.06
[3]; first compound 3.162 µM
  relative viability: 1.14
[3]; first compound 10 µM
  relative viability: 1.13
[3]; first compound 31.62 µM
  relative viability: 1.19
[3]; first compound 100 µM
  relative viability: 1.3
